Usually inhibition stands for the relative decrease from the control value, in per cent. Broadly, the IC50 is the midpoint of a concentration-inhibition curve.

Where two headings read alike, the source gives them in different places.

The subject of one series is 786-O. The experiment in a line: cells. The arrangement: mitochondrial toxicity in 786-O renal carcinoma cells. Particulars: Homo sapiens, 786-0; mitochondrial toxicity. On the procedure: (§1) Independent of the effect of any antiparasitic potential of compounds, they were evaluated using a panel of early-toxicity assays comprising cytotoxicity (A549, human lung adenocarcinoma epithelial cell line and WI-38, human lung fibroblasts), mitochondrial toxicity (786-O, human renal carcinoma cell line), hERG inhibition,[31] cytochrome P450 inhibition (CYP1A2, CYP2C9, CYP2C19, CYP2D6, and CYP3A4),[31] and Aurora B kinase inhibition. […] For the two compounds active against TbPTR1 (4m and 4o), IC50 against hERG, cytochrome P450, and mitochondrial toxicity were determined (reported in Supporting Information). We observed that the dose of compounds 4m, 4o, 4c, and 3k was 4 μM in the potentiation assays. […] In the case of hERG, CYP2D6, CYP2A9, CYP2C19, and mitochondrial toxicity, there is a selectivity index of around 3–4 fold, thus showing an acceptable profile.  Figure 10 Summary heat map of the in vitro assays to determine possible liability issues for all synthesized compounds. Assays were performed to assess inhibition of hERG and five CYP isoforms (1A2, 2C9, 2C19, 2D6, and 3A4), growth inhibition of A549 and W1-38 cell lines, and mitochondrial toxicity at 10 μM. The hDHFR inhibition was determined at 100 μM. The data, expressed as percentage values, were organized by adopting a color code for rapid and intuitive visualization. The ideal compound should have all tiles blue, indicating a safe toxicological profile for progressing into the development pipeline. The cells are colored from blue (100% of cell growth at the tested concentration) to red (0% of cell growth at the tested concentration) for A549 and W1-38 and from blue (0% of inhibitory activity at the tested concentration) to red (100% of inhibitory activity at the tested concentration) for CYP isoforms, hERG, hDHFR, and mitochondrial toxicity.

Another series concerns the target CYP2C9 (Homo sapiens, UniProt P11712). The experiment in a line: in vitro. The arrangement: cytochrome P450 isoform inhibition liability assay. The protocol: as §1
The target of a further series is CYP2C19 (Homo sapiens, UniProt P33261). The experiment in a line: in vitro. The arrangement: cytochrome P450 isoform inhibition liability assay. On the procedure: as §1
A further series deals with CYP3A4 (Homo sapiens, UniProt P08684). Description: in vitro. The arrangement: cytochrome P450 isoform inhibition liability assay. On the procedure: as §1
The next series has as its target T1, CYP1A2 (Homo sapiens, UniProt P05177).
T1 sequence (P05177 1-516): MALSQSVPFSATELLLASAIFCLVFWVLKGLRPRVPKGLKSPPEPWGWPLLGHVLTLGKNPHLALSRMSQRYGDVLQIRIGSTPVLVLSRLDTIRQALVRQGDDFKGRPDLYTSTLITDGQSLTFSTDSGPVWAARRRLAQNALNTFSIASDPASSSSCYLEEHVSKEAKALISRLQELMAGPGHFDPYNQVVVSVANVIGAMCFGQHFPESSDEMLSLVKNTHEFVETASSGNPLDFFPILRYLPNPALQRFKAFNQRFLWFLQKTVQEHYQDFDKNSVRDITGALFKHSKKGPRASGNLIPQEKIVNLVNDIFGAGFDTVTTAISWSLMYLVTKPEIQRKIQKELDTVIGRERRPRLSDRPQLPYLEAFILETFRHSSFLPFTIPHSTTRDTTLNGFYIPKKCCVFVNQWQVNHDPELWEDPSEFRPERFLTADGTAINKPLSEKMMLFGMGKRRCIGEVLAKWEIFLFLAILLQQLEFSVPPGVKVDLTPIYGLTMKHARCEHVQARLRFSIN
The experiment in a line: in vitro. The arrangement: cytochrome P450 isoform inhibition liability assay. On the procedure: as §1

The next series concerns the target CYP2D6 (Homo sapiens, UniProt P10635). The experiment in a line: in vitro. The arrangement: cytochrome P450 isoform inhibition liability assay. On the procedure:
as §1

For series [1], the system named is T. b. brucei Lister 427 bloodstream forms. Description: In vitro activity against T. brucei (HTS SYBR Green I growth inhibition assay). The note with it: Trypanosoma brucei, 50 μM; standard deviation within ±10% of the value; read-out: % Inhibition T. brucei at 50 μM. It counts as cell-based, Trypanosoma brucei brucei.
Series [2] can be described thus: in vitro. The arrangement: cytotoxicity, per cent cell growth of WI-38 fibroblasts. The note with it: human, wi-38 cells; read-out: % cell growth W1-38 at 10uM. On the procedure:
as §1

Series [3] in a line: in vitro. The arrangement: cytotoxicity, per cent cell growth of A549 cells. Particulars: human, a549 cells; read-out: % cell growth A549 at 10uM. The protocol: as §1
The target in a further series is T2, TbPTR1 (Trypanosoma brucei brucei, UniProt O76290).
T2 construct: made in house
T2 sequence (O76290 1-268): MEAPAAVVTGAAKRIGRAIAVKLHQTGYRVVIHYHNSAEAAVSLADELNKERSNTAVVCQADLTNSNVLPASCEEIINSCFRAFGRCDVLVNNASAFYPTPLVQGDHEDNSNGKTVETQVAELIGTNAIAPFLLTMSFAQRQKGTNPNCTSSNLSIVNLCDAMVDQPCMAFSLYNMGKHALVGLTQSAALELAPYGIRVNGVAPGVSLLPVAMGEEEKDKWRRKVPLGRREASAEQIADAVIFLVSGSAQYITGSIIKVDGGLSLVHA
The experiment in a line: biochemical. Particulars: for inhibition at 50 µM: 50 μM compound, read-out: % Inhibition TbPTR1 at 50 μM.

The target in a further series is T3, hERG (Homo sapiens, UniProt Q12809).
T3 construct: gene KCNH2
The arrangement: hERG inhibition liability assay. On the procedure: as §1

Chain of CYP2D6 (P10635 whole entry, canonical isoform): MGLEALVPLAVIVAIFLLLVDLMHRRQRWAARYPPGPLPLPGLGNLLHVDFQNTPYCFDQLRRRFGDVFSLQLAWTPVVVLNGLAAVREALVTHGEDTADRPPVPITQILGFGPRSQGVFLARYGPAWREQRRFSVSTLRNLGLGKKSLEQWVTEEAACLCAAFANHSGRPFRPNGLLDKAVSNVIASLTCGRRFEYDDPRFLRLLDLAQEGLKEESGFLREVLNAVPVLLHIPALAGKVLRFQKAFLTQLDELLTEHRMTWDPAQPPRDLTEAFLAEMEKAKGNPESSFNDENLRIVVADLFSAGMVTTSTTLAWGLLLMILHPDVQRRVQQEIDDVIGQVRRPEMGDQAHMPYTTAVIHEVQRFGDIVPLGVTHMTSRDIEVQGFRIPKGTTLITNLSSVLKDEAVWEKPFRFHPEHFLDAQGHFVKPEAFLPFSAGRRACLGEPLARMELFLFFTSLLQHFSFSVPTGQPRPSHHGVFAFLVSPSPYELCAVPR
T3 sequence (Q12809 whole entry): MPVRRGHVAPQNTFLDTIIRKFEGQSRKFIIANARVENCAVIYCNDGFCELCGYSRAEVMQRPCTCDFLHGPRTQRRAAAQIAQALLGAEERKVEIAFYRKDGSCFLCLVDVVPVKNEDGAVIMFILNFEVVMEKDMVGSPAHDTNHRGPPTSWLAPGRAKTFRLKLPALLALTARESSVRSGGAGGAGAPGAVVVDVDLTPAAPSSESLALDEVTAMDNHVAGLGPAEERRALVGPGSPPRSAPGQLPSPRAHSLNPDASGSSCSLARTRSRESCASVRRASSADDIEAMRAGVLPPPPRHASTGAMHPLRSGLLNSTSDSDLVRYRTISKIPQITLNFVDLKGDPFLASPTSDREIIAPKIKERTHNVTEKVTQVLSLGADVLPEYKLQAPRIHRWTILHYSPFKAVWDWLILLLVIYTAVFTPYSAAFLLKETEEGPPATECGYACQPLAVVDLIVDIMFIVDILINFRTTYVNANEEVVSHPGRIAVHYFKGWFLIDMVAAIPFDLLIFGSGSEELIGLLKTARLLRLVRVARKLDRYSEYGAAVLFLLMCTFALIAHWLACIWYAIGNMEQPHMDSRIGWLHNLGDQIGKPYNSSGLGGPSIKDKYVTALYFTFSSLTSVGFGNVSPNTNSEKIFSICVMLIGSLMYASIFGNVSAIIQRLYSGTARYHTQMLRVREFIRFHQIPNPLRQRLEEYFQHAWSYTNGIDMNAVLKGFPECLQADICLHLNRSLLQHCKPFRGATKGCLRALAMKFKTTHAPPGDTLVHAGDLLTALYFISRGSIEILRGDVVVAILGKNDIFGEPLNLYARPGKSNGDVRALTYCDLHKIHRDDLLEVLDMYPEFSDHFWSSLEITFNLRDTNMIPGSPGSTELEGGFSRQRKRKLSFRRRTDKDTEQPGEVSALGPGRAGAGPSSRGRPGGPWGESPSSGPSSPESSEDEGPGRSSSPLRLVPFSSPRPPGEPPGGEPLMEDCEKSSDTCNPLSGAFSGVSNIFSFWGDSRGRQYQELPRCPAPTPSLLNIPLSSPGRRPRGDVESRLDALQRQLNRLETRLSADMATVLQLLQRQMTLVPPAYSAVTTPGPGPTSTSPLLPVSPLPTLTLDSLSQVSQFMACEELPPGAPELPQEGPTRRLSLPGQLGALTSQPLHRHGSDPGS
Chain of CYP2C9 (P11712 whole entry, canonical isoform): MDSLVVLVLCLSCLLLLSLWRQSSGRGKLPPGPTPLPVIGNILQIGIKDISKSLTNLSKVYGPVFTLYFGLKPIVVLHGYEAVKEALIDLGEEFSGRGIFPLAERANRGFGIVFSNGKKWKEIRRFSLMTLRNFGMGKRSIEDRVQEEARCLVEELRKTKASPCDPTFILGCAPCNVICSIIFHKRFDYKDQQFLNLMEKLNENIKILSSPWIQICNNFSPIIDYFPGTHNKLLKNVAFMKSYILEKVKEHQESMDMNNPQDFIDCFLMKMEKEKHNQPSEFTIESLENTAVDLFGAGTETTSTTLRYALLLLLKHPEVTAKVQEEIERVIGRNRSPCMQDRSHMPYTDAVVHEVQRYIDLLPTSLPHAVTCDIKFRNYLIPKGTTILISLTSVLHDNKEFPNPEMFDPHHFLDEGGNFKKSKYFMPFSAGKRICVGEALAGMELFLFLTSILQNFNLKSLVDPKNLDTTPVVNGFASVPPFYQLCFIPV
Chain of CYP3A4 (P08684 whole entry, canonical isoform): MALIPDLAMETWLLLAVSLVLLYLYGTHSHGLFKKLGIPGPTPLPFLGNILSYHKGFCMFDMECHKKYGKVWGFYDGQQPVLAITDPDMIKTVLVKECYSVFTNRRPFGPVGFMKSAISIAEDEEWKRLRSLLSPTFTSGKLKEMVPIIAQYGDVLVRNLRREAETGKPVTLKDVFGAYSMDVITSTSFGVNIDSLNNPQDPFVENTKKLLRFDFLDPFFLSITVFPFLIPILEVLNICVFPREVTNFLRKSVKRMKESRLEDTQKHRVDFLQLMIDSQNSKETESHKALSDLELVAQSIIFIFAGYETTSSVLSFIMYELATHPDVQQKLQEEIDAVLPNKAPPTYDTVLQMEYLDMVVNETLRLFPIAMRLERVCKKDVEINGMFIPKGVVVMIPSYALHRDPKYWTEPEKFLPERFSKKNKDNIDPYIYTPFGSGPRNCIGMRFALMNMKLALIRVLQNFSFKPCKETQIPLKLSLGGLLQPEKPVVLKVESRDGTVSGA
Chain of CYP2C19 (P33261 whole entry, canonical isoform): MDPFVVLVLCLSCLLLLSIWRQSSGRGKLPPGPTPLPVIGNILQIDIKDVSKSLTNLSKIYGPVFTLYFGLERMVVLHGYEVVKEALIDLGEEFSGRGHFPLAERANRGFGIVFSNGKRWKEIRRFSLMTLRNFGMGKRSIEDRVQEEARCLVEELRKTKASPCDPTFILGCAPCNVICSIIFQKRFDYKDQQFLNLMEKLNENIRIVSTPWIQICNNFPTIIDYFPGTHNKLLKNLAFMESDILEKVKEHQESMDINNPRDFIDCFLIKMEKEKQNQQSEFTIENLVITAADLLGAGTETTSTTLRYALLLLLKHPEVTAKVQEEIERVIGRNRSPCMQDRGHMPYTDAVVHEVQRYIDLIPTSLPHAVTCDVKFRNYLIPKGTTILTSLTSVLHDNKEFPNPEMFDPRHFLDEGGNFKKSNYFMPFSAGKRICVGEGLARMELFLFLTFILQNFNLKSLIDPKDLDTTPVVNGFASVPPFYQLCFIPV

As for `Nc1nnc(Cc2ccc3ccccc3c2)s1` [3e], the inhibition at 10 µM in the series with 786-O was 4.3 ± 8.6%; at CYP2C9, -47.8 ± 3.9%; at CYP2C19, -54.9 ± 9.3%; at CYP3A4 it was -3.2 ± 3.8%; on CYP1A2, 0.4 ± 1.3%; on CYP2D6, -31.7 ± 1.7%. Moreover, the inhibition at 10 µM at hERG is -5.6 ± 3.5%. Also, the inhibition at 50 µM in series [1] stood at 0.4%; on TbPTR1, 20.9 ± 0.3%. The viability at 10 µM in the series “in vitro [2]” worked out at 105 ± 38.5%; in the series “in vitro [3]”, 141 ± 5.6%.

As to `Nc1nnc(CCc2ccccc2)s1` [3g], the inhibition at 10 µM in the series with 786-O was 4 ± 16.1%; at CYP2C9, -10.5 ± 3.7%; on CYP2C19 it was -36.5 ± 6.1%; at CYP3A4 it was -25.6 ± 10.5%; on CYP1A2 it was -14.9 ± 5.7%; on CYP2D6 it was -43.9 ± 4.1%. At hERG, the inhibition at 10 µM was -1.9 ± 1.3%. Moreover, the inhibition at 50 µM in [1] is < 0%; at TbPTR1 it was 7.6 ± 0.3%. The viability at 10 µM in the series “in vitro [2]” is 101 ± 17.5%; in “in vitro [3]”, 109 ± 13.4%.

For the compound `Nc1nnc(NCc2ccccc2)s1` [4b], the inhibition at 10 µM is 9 ± 14.8% with 786-O; -14.7 ± 3.3% on CYP2C9; -32.1 ± 5.7% at CYP2C19; -9.5 ± 6.2% at CYP3A4; -17.2 ± 3.6% at CYP1A2; -32.7 ± 6.7% at CYP2D6. Also, the inhibition at 10 µM at hERG is 1.8 ± 1.3%. Besides, the inhibition at 50 µM in series [1] is < 0%; at TbPTR1 it was 39.5 ± 0.9%. The viability at 10 µM amounted to 124 ± 19% in the series “in vitro [2]” and 104 ± 9.3% in the series “in vitro [3]”.

Take `Nc1nnc(NCc2ccccc2Cl)s1` [4d]: the inhibition at 10 µM was -1.6 ± 9.3% in the series on 786-O; 13.9 ± 3.5% on CYP2C9; -13.3 ± 10.3% at CYP2C19; 10.1 ± 10.7% on CYP3A4; 28.2 ± 1.2% on CYP1A2; 90.3 ± 0.9% at CYP2D6. Also, the inhibition at 10 µM at hERG was 15.2 ± 3.6%. Also, the inhibition at 50 µM in series [1] is < 0%; on TbPTR1, 21.8 ± 2.2%. Besides, the viability at 10 µM in “in vitro [2]” is 55.4 ± 2.4%; in the series “in vitro [3]”, 115 ± 8.9%.

On to `Nc1nnc(NCc2ccc(F)cc2)s1` [4g], for which the inhibition at 10 µM is -8.3 ± 12.6% in the series on 786-O; 22.9 ± 1.3% at CYP2C9; -13.9 ± 11.1% on CYP2C19; 11.2 ± 3.1% on CYP3A4; 24.9 ± 2.6% on CYP1A2; 103.1 ± 0.6% at CYP2D6. At hERG, the inhibition at 10 µM came to 96.9 ± 6.1%. Besides, the results for the inhibition at 50 µM (in series [1]; at TbPTR1) were 33% and 14.7 ± 1.7%, respectively. The results for the viability at 10 µM in the series “in vitro [2]” and in “in vitro [3]” were 97.1 ± 30.2% and 110 ± 8%, respectively.

For `COc1ccc(CNc2nnc(N)s2)cc1OC` [4j], the inhibition at 10 µM was -8.3 ± 4.5% in the series on 786-O; 26.2 ± 1.3% at CYP2C9; 5.7 ± 7.4% at CYP2C19; 18.6 ± 4.2% on CYP3A4; 23.9 ± 4.8% at CYP1A2; 36.5 ± 4.4% on CYP2D6. Moreover, the inhibition at 10 µM at hERG worked out at 35.7 ± 7.1%. Moreover, the inhibition at 50 µM in series [1] came to 45.1%; at TbPTR1, 8.4 ± 1.2%. Besides, the values for the viability at 10 µM in “in vitro [2]” and in “in vitro [3]” were 129 ± 57.4% and 118 ± 3.9%, respectively.

For the compound `COc1cc(CNc2nnc(N)s2)cc(OC)c1OC` [4k], the inhibition at 10 µM in the series on 786-O is -1.9 ± 14.9%; at CYP2C9, 20.2 ± 2.5%; at CYP2C19, 0.2 ± 10.3%; at CYP3A4, 11.4 ± 3.6%; on CYP1A2, 22.3 ± 4.1%; on CYP2D6 it was 23.6 ± 2.4%. The inhibition at 10 µM on hERG was found to be 21.3 ± 27.9%. The inhibition at 50 µM (in series [1]; on TbPTR1) was < 0% in each case. Besides, the viability at 10 µM is 71.2 ± 3.6% in “in vitro [2]” and 116 ± 3.8% in the series “in vitro [3]”.

On to `Cc1ccc(CNc2nnc(N)s2)cc1` [4l], for which the inhibition at 10 µM with 786-O is -5.3 ± 14.7%; on CYP2C9, 14.2 ± 3.9%; at CYP2C19 it was -6.7 ± 11.4%; at CYP3A4 it was 26.9 ± 4.7%; on CYP1A2, 17.3 ± 3.2%; on CYP2D6, 98.7 ± 1%. Besides, the inhibition at 10 µM at hERG was 77.4 ± 1.5%. Also, the values for the inhibition at 50 µM (in [1]; at TbPTR1) were 10.8% and 18.6 ± 0.8%, respectively. Besides, the viability at 10 µM in the series “in vitro [2]” turned out to be 106 ± 13.2%; in “in vitro [3]”, 104.6 ± 0.5%.

`Nc1nnc(NCCCc2ccccc2)s1` [4q, N2G(3Gphenylpropyl)G1,3,4GthiadiazoleG2,5Gdiamine]: the inhibition at 10 µM was found to be 5.6 ± 18% with 786-O; 18.6 ± 4.5% on CYP2C9; 17.3 ± 4.6% at CYP2C19; 24.2 ± 4.7% on CYP3A4; 22.1 ± 2.7% at CYP1A2; 100.2 ± 0.4% on CYP2D6. For the same compound, the inhibition at 10 µM at hERG stood at 81.1 ± 11.6%. Further, the inhibition at 50 µM in series [1] was < 0%; on TbPTR1, 30 ± 1.9%. The viability at 10 µM was found to be 111 ± 43.7% in the series “in vitro [2]” and 106 ± 3.7% in “in vitro [3]”. This compound showed an IC50 on TbPTR1 (dose-response 0.001-100 μM) of 57 µM.

Regarding `COCCCNc1nnc(N)s1` [4s, N2G(3Gmethoxypropyl)G1,3,4GthiadiazoleG2,5Gdiamine], the inhibition at 10 µM with 786-O is -0.9 ± 11.9%; at CYP2C9 it was -15.5 ± 7.2%; on CYP2C19, -20 ± 13.9%; on CYP3A4, -37.5 ± 15.3%; at CYP1A2 it was -14.8 ± 3.7%; at CYP2D6 it was -13.5 ± 10.7%. The inhibition at 10 µM on hERG was 3.9 ± 5.4%. The inhibition at 50 µM in series [1] is < 0%; at TbPTR1 it was 11.8 ± 0.3%. Moreover, the viability at 10 µM in “in vitro [2]” worked out at 89.6 ± 8.9%; in the series “in vitro [3]” it was 101 ± 11.2%.

Source of the values: PMC5623949, “Exploiting the 2-Amino-1,3,4-thiadiazole Scaffold To Inhibit Trypanosoma brucei Pteridine Reductase in Support of Early-Stage Drug Discovery” (ACS Omega, 2017).
